Consider ten molecules from ChEMBL document CHEMBL4842382, “Fragment-Based Discovery of Small Molecules Bound to T-Cell Immunoglobulin and Mucin Domain-Containing Molecule 3 (TIM-3)” (J Med Chem, 2021).

Bounds are passed on as bounds.

The first data set has as its target T1, Hepatitis A virus cellular receptor 2 (Homo sapiens, UniProt Q8TDQ0).
T1 sequence (Q8TDQ0 whole entry): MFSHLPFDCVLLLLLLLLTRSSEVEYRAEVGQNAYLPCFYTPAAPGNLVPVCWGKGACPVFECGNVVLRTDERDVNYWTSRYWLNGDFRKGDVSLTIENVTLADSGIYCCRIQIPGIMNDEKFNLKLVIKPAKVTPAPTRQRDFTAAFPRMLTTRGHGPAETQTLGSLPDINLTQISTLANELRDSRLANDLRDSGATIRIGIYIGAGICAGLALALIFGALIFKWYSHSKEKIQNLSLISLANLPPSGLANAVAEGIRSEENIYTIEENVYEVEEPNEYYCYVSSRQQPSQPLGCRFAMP
Briefly: Displacement of FITC-labelled 5-(((8-Chloro-9-(3-methylpyridin-4-yl)-5-oxo-5,6-dihydro-[1,2,4]triazolo[1,5-c]quinazolin-2-yl)methyl)carbamoyl)-2-(6-hydroxy-3-oxo-3H-xanthen-9-yl)benzoic acid probe from human TIM-3 IgV domain (residues 22 to 130) expressed in Escherichia coli BL21 (DE3) by FPA competition assay.
Details: not given
In general, IC50 refers to the concentration needed to halve the response being measured. A high value points to weaker potency. By Ki is commonly meant a measure of affinity in units of concentration, obtained from inhibition or displacement. Low readings indicate higher affinity, high ones lower affinity. `Cc1nc2c3cc(-c4ccncc4C)c(Cl)cc3[nH]c(=O)n2n1` came in with an IC50 of 53 µM and a Ki of 4.9 µM.

Another data set has as its target T1, Hepatitis A virus cellular receptor 2.
Details: not given
The term Kd denotes the free concentration of one partner at which half of the binding sites on the other are occupied at equilibrium, for simple one-to-one binding. A lower Kd goes with tighter binding. The molecule `CN(C)CCn1c(=S)[nH]c2ccccc2c1=O` registered a Kd of 530 µM. Same read-out and setting: under `Cc1ccc(Nc2ncnc3c2cnn3C)cc1` stands 850 µM; under `Cc1cc(-c2nc3ncccc3o2)ccc1N`, 460 µM.

Take `Cc1cccc(Nc2cc(=O)n(C)c(=O)n2C)c1`: the Kd was 1400 µM. Still for that read-out and setting: the same measure for `Oc1nc2ccccc2c2nc(-c3ccccc3)nn12`: more than 2000 µM; for `Cc1nc2c3cc(-c4ccncc4C)c(Cl)cc3[nH]c(=O)n2n1`: 10 µM; for `O=C1CC(c2ccccc2)c2cc3c(cc2N1)OCO3` (stereo not drawn): more than 2000 µM.

As to `Sc1nc2cc(Cl)ccc2[nH]1`, binding was characterised by a dissociation constant (Kd) of 670 µM.

System in a further data set: not listed separately
Nature of the data set: Aqueous solubility of the compound. The data set is classed as physicochemical. The note with it: buffer.
`Oc1nc2ccccc2c2nc(-c3ccccc3)nn12`: the solubility result is reported as “Insoluble”. Take `Cc1nc2c3cc(-c4ccncc4C)ccc3[nH]c(=O)n2n1`: the solubility entry is reported as “Insoluble”. Same read-out and setting: under `Cc1nc2c3cc(Br)ccc3[nH]c(=O)n2n1` stands “Insoluble”.
